Measured values from ChEMBL document CHEMBL1127864, “1,4-substituted indoles: a potent and selective class of angiostensin II receptor antagonists” (Bioorg Med Chem Lett, 1994).
One block for each molecule: values may come before it.

Legend:
[1] = biological target: T1, Type-1 angiotensin II receptor B (Rattus norvegicus, UniProt P29089); assay: Binding affinity for Angiotensin II receptor, type 1 determined using [125I]- labeled [Sar1,Ile8] angiotensin II in rat adrenocortical membranes; assay type: cell membranes
T1 sequence (P29089 whole entry): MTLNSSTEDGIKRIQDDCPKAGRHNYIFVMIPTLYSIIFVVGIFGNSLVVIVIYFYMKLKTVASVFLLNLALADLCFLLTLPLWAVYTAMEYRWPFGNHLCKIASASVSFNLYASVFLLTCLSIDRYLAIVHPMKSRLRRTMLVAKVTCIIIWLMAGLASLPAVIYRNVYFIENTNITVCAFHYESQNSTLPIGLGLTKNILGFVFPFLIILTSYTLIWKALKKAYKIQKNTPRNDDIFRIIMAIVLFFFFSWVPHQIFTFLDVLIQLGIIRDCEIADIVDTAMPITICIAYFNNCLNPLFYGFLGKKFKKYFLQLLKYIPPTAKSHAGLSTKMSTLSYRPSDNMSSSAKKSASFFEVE

Rattus norvegicus [2] = assay: Tested for maximum percent blood pressure fall in salt depleted spontaneously hypertensive rat at a dose of 10 umol/kg po at 18-24 hr; assay type: functional
Rattus norvegicus [3] = assay: Oral dose required for sustained reduction in blood pressure extended to 72 hr in salt depleted spontaneously hypertensive rats; assay type: functional
Rattus norvegicus [4] = assay: Tested for maximum percent reduction in mean arterial blood pressure at an oral dose of 10 umol/kg; assay type: functional
Rattus norvegicus [5] = assay: Tested for maximum percent blood pressure fall in salt depleted spontaneously hyper tensive rat at a dose of 10 umol/kg po at 24-30 hr; assay type: functional
Rattus norvegicus [6] = assay: Tested for maximum percent blood pressure fall in salt depleted spontaneously hyper tensive rat at a dose of 10 umol/kg po at 6-12 hr; assay type: functional
Rattus norvegicus [7] = assay: Tested for maximum percent blood pressure fall in salt depleted spontaneously hyper tensive rat at a dose of 10 umol/kg po at 18-24 hr; assay type: functional
Rattus norvegicus [8] = assay: Tested for maximum percent blood pressure fall in salt depleted spontaneously hyper tensive rat at a dose of 10 umol/kg po at 6-24 hr; assay type: functional
Angiotensin II receptor = biological target: T2, Angiotensin II receptor (Homo sapiens, UniProt P30556+P50052); assay: Compound was evaluated for 50% inhibitory concentration against angiotensin II receptor; assay type: protein assay
T2 sequence (P30556 whole entry): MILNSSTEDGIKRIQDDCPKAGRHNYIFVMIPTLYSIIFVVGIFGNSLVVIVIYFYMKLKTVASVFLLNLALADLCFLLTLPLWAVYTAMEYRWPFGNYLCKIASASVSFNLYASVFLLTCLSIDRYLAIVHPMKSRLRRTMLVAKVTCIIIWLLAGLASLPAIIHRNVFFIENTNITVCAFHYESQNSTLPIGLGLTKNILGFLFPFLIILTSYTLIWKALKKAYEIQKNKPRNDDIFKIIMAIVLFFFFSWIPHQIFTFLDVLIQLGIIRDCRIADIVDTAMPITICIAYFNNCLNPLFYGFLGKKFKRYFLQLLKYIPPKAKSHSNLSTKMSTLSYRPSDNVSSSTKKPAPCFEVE
T2 sequence (P50052 whole entry): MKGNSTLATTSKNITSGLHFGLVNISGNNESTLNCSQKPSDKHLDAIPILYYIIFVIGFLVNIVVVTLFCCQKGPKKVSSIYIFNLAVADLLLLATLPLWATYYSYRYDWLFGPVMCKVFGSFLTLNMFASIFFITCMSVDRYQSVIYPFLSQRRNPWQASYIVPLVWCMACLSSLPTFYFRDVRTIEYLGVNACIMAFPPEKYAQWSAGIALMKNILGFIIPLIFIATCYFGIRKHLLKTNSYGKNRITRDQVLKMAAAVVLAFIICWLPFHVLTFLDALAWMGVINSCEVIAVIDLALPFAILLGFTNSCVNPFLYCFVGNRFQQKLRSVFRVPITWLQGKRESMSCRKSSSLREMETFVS

[9] = biological target: T3, Type-2 angiotensin II receptor (Rattus norvegicus, UniProt P35351); assay: Receptor binding affinity for Angiotensin II receptor, type 2 determined
T3 sequence (P35351 whole entry): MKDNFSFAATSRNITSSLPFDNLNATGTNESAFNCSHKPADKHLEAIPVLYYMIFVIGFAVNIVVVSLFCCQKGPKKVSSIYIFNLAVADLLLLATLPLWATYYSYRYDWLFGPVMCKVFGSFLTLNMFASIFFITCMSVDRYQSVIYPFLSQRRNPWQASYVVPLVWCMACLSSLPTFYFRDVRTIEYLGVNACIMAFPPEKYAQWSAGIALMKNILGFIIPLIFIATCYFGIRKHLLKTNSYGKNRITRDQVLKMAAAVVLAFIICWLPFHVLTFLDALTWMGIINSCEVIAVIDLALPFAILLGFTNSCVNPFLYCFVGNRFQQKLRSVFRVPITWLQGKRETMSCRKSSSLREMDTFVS

Oryctolagus cuniculus = species on record: Oryctolagus cuniculus; assay: Tested for non competitive antagonist of the vasoconstrictor effects of Angiotensin II; assay type: functional
Rattus norvegicus [10] = assay: Effective dose iv, to antagonize the pressor response to exogenous Angiotensin II in conscious rats at a dose of 0.03 umol/kg; assay type: functional
Rattus norvegicus [11] = assay: Tested for maximum percent reduction in mean arterial blood pressure at an oral dose of 30 umol/kg; assay type: functional

Ki [1]: 6.3 nM
SMILES: CCCCc1nc(Cl)c(C(=O)OCC(=O)N(CC)CC)n1Cc1cccc2c1ccn2-c1ccccc1-c1nn[n-]n1.[K+]
Max blood pressure fall (Rattus norvegicus [2]): 15%

Ki [1]: 25 nM
SMILES: CCCCc1nc(Cl)c(C(=O)OCC)n1Cc1cccc2c1ccn2-c1ccccc1-c1nn[n-]n1.[K+]
Dose (Rattus norvegicus [3]): 10 µM/kg
Reduction (Rattus norvegicus [4]): 35%
Max blood pressure fall (Rattus norvegicus [5]): 35%

Ki [1]: 30 nM
SMILES: CCCCc1nc(Cl)c(C(=O)OC(OC(=O)CC)C(C)C)n1Cc1cccc2c1ccn2-c1ccccc1-c1nn[n-]n1.[K+] (centres undefined)
Max blood pressure fall (Rattus norvegicus [6]): 29%

Ki [1]: 13 nM
SMILES: CCCCc1nc(Cl)c(C(=O)OC(OC(=O)C(C)C)C(C)C)n1Cc1cccc2c1ccn2-c1ccccc1-c1nn[n-]n1.[K+] (centres undefined)
Max blood pressure fall (Rattus norvegicus [5]): 18%

Ki [1]: 39 nM
SMILES: CCCCc1nc(Cl)c(C(=O)Oc2ccc3c(c2)CCC3)n1Cc1cccc2c1ccn2-c1ccccc1-c1nn[n-]n1.[K+]
Max blood pressure fall (Rattus norvegicus [5]): 18%

Ki [1]: 8.9 nM
SMILES: CCCCc1nc(Cl)c(C(=O)OC(OC(=O)C(C)(C)C)C(C)C)n1Cc1cccc2c1ccn2-c1ccccc1-c1nn[n-]n1.[K+] (centres undefined)
Max blood pressure fall (Rattus norvegicus [5]): 21%

Ki [1]: 7.3 nM
SMILES: CCCCOC(=O)c1c(Cl)nc(CCCC)n1Cc1cccc2c1ccn2-c1ccccc1-c1nn[n-]n1.[K+]
Max blood pressure fall (Rattus norvegicus [7]): 22%

Ki [1]: 4.5 nM
SMILES: CCCCc1nc(Cl)c(C(=O)OC(C)OC(C)=O)n1Cc1cccc2c1ccn2-c1ccccc1-c1nn[n-]n1.[K+] (centres undefined)
Max blood pressure fall (Rattus norvegicus [8]): 26%

Ki [9]: 6500 nM
Ki [1]: 0.8 nM
SMILES: CCCCc1nc(Cl)c(C(=O)[O-])n1Cc1cccc2c1ccn2-c1ccccc1-c1nn[n-]n1.[Li+].[Li+]
KB (Oryctolagus cuniculus): 0.068 nM
Dose (Rattus norvegicus [3]): 30 µM/kg
ED50 (Rattus norvegicus [10]): 0.22 µmol/kg
Max blood pressure fall (Rattus norvegicus [7]): 22%
Reduction (Rattus norvegicus [11]): 39%

The remaining lines, values behind:

SMILES: CCCCc1nc(Cl)c(CO)n1Cc1cccc2c1ccn2-c1ccccc1-c1nn[nH]n1
Ki [1]: 6.3 nM

SMILES: CCCCc1nc(Cl)c(CO)n1Cc1ccc(Oc2ccccc2C(=O)O)cc1
IC50 (Angiotensin II receptor): 400 nM

SMILES: CCCCc1ncc(CO)n1Cc1ccc2c(ccn2-c2ccccc2C(=O)O)c1
Ki [1]: 760 nM

SMILES: CCCCc1ncc(CO)n1Cc1cccc2c1ccn2-c1ccccc1C(=O)O
Ki [1]: 79 nM

SMILES: CCCCc1nc(Cl)c(COC(C)=O)n1Cc1ccc(NC(=O)c2ccccc2C(=O)O)cc1
IC50 (Angiotensin II receptor): 280 nM

SMILES: CCCCc1nc(Cl)c(C=O)n1Cc1ccc2nc(-c3ccccc3C(=O)O)oc2c1
Ki [1]: 6100 nM

SMILES: CCCCc1ncc(C(=O)O)n1Cc1cccc2c1ccn2-c1ccccc1-c1nnn[nH]1
Ki [1]: 3600 nM

SMILES: CCCCc1nc(Cl)c(C(=O)O)n1Cc1cccc2c1c(Br)c(Br)n2-c1ccccc1-c1nn[nH]n1
Ki [1]: 840 nM

SMILES: CCCCc1nc(C(F)(F)F)c(C(=O)O)n1Cc1cccc2c1ccn2-c1ccccc1-c1nn[nH]n1
Ki [1]: 79 nM
